Drawing on paper PMC7543951 (Molecular cell, 2020), this text covers IC50 for one compound.

In this assay the target is T1, ROR1 pseudokinase domain (Homo sapiens, UniProt Q01973).
T1 sequence (Q01973 457-752): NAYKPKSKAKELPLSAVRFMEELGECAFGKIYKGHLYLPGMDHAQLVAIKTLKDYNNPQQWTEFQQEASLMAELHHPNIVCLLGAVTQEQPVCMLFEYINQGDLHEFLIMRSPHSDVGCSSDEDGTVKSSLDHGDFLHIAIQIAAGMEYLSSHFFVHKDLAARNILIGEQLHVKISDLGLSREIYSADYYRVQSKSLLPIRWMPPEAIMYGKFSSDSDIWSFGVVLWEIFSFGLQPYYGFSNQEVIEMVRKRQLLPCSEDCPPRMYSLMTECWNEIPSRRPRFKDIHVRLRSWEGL
Kind of assay: DSF concentration series. It is filed as binding.

Broadly, the IC50 is the concentration needed to halve the response being measured. A high value points to a need for much substance.

`Cc1ccc(C(=O)Nc2ccc(CN3CCN(C)CC3)c(C(F)(F)F)c2)cc1C#Cc1cnc2[nH]ncc2c1` [GZD824]: the IC50 was approximately 1 µM.
